According to ChEMBL document CHEMBL5543147, “Discovery and Characterization of a Novel Cereblon-Recruiting PRC1 Bridged PROTAC Degrader” (J Med Chem, 2024):
Active and inactive are the calls of the source. The calls are words filed in the database; no cut-off is given here.

Tests used:
[1] = target: T1, Protein cereblon/Histone-lysine N-methyltransferase EZH2 (Homo sapiens) (UniProt Q15910+Q96SW2); assay: PROTAC activity at CRBN/EZH2 in human K562 cells assessed as degradation of EZH2 protein expression at 0.1 to 10 uM incubated for 24 hrs by Western blotting analysis; type: cell-based; details: dose 0.1-10 µM
[2] = system: K562; assay: Antiproliferative activity against human K562 cells assessed as cell growth inhibition incubated for 7 days by WST-8 assay; type: functional; details: K562, 168 h, time 7 day
[3] = system: PC-3M; assay: Induction of PRC2 degradation in human PC-3M cells assessed as reduction of H3K27me3 chromatin mark at 5 uM incubated for 24 hrs by Western blotting analysis; type: cell-based
[4] = target: T2, Protein cereblon/E3 ubiquitin-protein ligase RING2 (Homo sapiens, UniProt Q96SW2+Q99496); assay: PROTAC activity at CRBN/RING1B in human K562 cells assessed as degradation of RING1B protein expression at 10 uM incubated for 20 hrs in presence of EED226 by Western blotting analysis; type: cell-based
[5] = target: T2, Protein cereblon/E3 ubiquitin-protein ligase RING2; assay: PROTAC activity at CRBN/RING1B in human K562 cells assessed as degradation of RING1B protein expression at 10 uM incubated for 20 hrs in presence of pomalidomide by Western blotting analysis; type: cell-based
[6] = target: Protein cereblon/Polycomb protein SUZ12 (Homo sapiens) (UniProt Q15022+Q96SW2); assay: PROTAC activity at CRBN/SUZ12 in human K562 cells assessed as degradation of SUZ12 protein expression at 0.1 to 10 uM incubated for 24 hrs by Western blotting analysis; type: cell-based; details: dose 0.1-10 µM
[7] = target: T2, Protein cereblon/E3 ubiquitin-protein ligase RING2; assay: PROTAC activity at CRBN/RING1B in human K562 cells assessed as degradation of RING1B protein expression at 10 uM measured after 4 hrs by Western blotting analysis; type: cell-based
[8] = target: T2, Protein cereblon/E3 ubiquitin-protein ligase RING2; assay: PROTAC activity at CRBN/RING1B in human K562 cells assessed as degradation of RING1B protein expression at 10 uM incubated for 20 hrs in presence of MLN4924 by Western blotting analysis; type: cell-based
[9] = target: Protein cereblon/RING1 and YY1-binding protein (Homo sapiens) (UniProt Q96SW2+Q8N488); assay: PROTAC activity at CRBN/RYBP in human K562 cells assessed as degradation of RYBP protein expression at 1 to 10 uM incubated for 24 hrs by Western blotting analysis; type: cell-based; details: dose 1-10 µM
[10] = target: T2, Protein cereblon/E3 ubiquitin-protein ligase RING2; assay: PROTAC activity at CRBN/RING1B in human K562 cells assessed as degradation of RING1B protein expression at 10 uM incubated for 20 hrs in presence of MG132 by Western blotting analysis; type: cell-based
[11] = target: Protein cereblon/Zinc finger protein Aiolos (Homo sapiens) (UniProt Q96SW2+Q9UKT9); assay: PROTAC activity at CRBN/IKZF3 in human K562 cells assessed as degradation of IKZF3 protein at 0.1 to 10 uM incubated for 4 hrs by Western blotting analysis; type: cell-based; details: dose 0.1-10 µM
[12] = target: T3, Protein cereblon/Polycomb complex protein BMI-1 (Homo sapiens, UniProt Q96SW2+P35226); assay: PROTAC activity at […] in human K562 cells assessed as degradation of BMI1 protein expression at 10 uM incubated for 20 hrs in presence of EED226 by Western blotting analysis; type: cell-based
[13] = target: Protein cereblon/E3 ubiquitin-protein ligase RING1 (Homo sapiens) (UniProt Q96SW2+Q06587); assay: PROTAC activity at CRBN/RING1A in human K562 cells assessed as degradation of RING1A protein expression at 1 to 10 uM incubated for 24 hrs by Western blotting analysis; type: cell-based; details: dose 1-10 µM
[14] = target: Protein cereblon/Chromobox protein homolog 8 (Homo sapiens) (UniProt Q9HC52+Q96SW2); assay: PROTAC activity at CRBN/CBX8 in human K562 cells assessed as degradation of CBX8 protein expression at 1 to 10 uM incubated for 24 hrs by Western blotting analysis; type: cell-based; details: dose 1-10 µM
[15] = target: T1, Protein cereblon/Histone-lysine N-methyltransferase EZH2 (Homo sapiens); assay: PROTAC activity at CRBN/EZH2 in human MDA-MB-468 cells assessed as degradation of EZH2 protein expression at 5 uM incubated for 24 hrs by Western blotting analysis; type: cell-based
[16] = Drug concentration in Swiss albino mouse plasma at 50 mg/kg,ip administration measured after 8 hrs by LC-MS/MS analysis; type: ADME, organism-based
[17] = system: MDA-MB-468; assay: Induction of PRC1 degradation in human MDA-MB-468 cells assessed as reduction of H2AK119ub chromatin mark at 5 uM incubated for 24 hrs by Western blotting analysis; type: cell-based
[18] = system: K562; assay: Antiproliferative activity against human K562 cells assessed as fold increase in HoxA mRNA expression at 10 uM incubated for 24 hrs by RT-qPCR analysis; type: functional
[19] = system: PC-3M; assay: Inhibition of colony formation in human PC-3M cells at 1 to 10 uM incubated for 14 days by crystal violet staining based assay; type: functional, cell-based; details: dose 1-10 µM, time 14.0 day
[20] = target: T1, Protein cereblon/Histone-lysine N-methyltransferase EZH2 (Homo sapiens); assay: PROTAC activity at CRBN/EZH2 in human PC-3M cells assessed as degradation of EZH2 protein expression at 0.2 to 5 uM incubated for 24 hrs by Western blotting analysis; type: cell-based; details: dose 0.2-5 µM
[21] = target: T3, Protein cereblon/Polycomb complex protein BMI-1; assay: PROTAC activity at […] in human K562 cells assessed as degradation of BMI1 protein expression at 10 uM incubated for 20 hrs in presence of pomalidomide by Western blotting analysis; type: cell-based
[22] = target: T2, Protein cereblon/E3 ubiquitin-protein ligase RING2; assay: PROTAC activity at CRBN/RING1B in human K562 cells assessed as degradation of RING1B protein expression at 10 uM measured after 12 hrs by Western blotting analysis relative to control; type: cell-based
[23] = target: T3, Protein cereblon/Polycomb complex protein BMI-1; assay: PROTAC activity at […] in human K562 cells assessed as degradation of BMI1 protein expression at 10 uM incubated for 20 hrs in presence of MG132 by Western blotting analysis; type: cell-based
[24] = system: 786-0; assay: Antiproliferative activity against human 786-0 cells assessed as inhibition of cell growth at 30 uM incubated for 7 days by WST-8 assay; type: functional, cell-based; details: time 7.0 day
[25] = target: T3, Protein cereblon/Polycomb complex protein BMI-1; assay: PROTAC activity at […] in human K562 cells assessed as degradation of BMI1 protein expression at 10 uM incubated for 20 hrs in presence of MLN4924 by Western blotting analysis; type: cell-based
[26] = system: MDA-MB-468; assay: Inhibition of colony formation in human MDA-MB-468 cells at 1 to 10 uM incubated for 14 days by crystal violet staining based assay; type: functional, cell-based; details: dose 1-10 µM, time 14.0 day
[27] = system: PNT2; assay: Cytotoxicity against human PNT2 cells assessed as inhibition of cell growth measured upto 15 uM incubated for 5 days by WST-8 assay; type: toxicity, cell-based; details: pnt2, 120 h, time 5 day
[28] = target: T2, Protein cereblon/E3 ubiquitin-protein ligase RING2; assay: PROTAC activity at CRBN/RING1B in human PC-3M cells assessed as degradation of RING1B protein expression at 1 uM incubated for 24 hrs by Western blotting analysis; type: cell-based
[29] = target: Protein cereblon/Polycomb protein EED (Homo sapiens, UniProt O75530+Q96SW2); assay: PROTAC activity at CRBN/EED in human K562 cells assessed as degradation of EED protein expression incubated for 24 hrs by Western blotting analysis; type: cell-based
Sequence of Protein cereblon/Polycomb protein EED (O75530 whole entry): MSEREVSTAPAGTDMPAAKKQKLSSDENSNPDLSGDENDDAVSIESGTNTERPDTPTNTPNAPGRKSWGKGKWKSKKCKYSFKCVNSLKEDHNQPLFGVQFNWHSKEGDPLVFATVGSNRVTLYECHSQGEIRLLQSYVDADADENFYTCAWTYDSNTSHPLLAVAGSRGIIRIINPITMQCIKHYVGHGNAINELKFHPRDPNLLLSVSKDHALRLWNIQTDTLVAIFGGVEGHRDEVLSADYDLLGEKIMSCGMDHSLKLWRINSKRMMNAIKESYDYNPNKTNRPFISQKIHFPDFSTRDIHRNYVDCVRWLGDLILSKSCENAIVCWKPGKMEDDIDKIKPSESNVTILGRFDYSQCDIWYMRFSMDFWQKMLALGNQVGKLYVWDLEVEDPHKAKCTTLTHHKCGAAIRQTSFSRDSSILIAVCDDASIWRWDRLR
Sequence of Protein cereblon/Polycomb protein EED (Q96SW2 whole entry): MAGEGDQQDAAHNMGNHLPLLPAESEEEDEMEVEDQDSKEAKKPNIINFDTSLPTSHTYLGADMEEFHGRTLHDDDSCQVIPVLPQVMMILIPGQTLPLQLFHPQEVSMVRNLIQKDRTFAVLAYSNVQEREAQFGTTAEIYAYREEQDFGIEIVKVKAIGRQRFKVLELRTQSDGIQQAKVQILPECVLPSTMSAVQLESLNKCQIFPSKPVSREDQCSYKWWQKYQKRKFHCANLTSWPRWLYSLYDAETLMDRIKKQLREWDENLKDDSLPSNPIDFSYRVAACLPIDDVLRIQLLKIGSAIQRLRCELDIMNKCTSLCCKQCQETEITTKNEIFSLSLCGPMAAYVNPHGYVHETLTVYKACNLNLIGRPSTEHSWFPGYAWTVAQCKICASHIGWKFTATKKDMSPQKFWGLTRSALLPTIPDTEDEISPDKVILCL

T3 sequence (P35226 whole entry, looked up): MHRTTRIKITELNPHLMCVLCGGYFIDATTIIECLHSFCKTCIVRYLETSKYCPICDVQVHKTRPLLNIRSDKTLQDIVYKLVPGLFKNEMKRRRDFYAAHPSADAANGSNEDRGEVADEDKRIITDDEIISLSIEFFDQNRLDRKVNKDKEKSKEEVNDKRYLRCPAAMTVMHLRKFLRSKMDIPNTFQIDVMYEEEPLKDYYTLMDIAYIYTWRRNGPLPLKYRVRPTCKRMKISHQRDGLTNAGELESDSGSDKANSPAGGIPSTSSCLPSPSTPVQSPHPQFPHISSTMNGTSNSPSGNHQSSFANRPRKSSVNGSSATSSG
T3 sequence (Q96SW2 whole entry, looked up): as the sequence (Q96SW2 whole entry) above
T1 sequence (Q15910 whole entry, looked up): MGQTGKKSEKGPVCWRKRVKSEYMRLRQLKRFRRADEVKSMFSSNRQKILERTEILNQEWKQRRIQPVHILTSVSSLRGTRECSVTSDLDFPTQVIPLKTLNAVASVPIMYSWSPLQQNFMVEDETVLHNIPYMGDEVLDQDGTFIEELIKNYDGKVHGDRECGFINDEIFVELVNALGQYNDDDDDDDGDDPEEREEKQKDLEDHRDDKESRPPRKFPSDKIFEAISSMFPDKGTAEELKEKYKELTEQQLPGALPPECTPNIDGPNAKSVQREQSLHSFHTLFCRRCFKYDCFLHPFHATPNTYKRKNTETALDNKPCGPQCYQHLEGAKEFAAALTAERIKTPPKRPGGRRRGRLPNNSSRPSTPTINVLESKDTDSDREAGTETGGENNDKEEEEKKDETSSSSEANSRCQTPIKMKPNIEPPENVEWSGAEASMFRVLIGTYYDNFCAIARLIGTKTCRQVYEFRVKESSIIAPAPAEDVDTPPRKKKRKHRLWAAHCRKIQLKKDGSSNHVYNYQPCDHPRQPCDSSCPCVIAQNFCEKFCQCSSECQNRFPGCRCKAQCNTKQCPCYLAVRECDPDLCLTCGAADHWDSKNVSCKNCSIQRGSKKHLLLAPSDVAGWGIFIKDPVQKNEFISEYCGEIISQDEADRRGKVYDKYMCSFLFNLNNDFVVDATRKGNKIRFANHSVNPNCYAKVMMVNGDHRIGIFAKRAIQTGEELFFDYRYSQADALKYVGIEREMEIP
T1 sequence (Q96SW2 whole entry, looked up): as the sequence (Q96SW2 whole entry) above
T2 sequence (Q96SW2 whole entry): as above
T2 sequence (Q99496 2-336 partner limits assumed): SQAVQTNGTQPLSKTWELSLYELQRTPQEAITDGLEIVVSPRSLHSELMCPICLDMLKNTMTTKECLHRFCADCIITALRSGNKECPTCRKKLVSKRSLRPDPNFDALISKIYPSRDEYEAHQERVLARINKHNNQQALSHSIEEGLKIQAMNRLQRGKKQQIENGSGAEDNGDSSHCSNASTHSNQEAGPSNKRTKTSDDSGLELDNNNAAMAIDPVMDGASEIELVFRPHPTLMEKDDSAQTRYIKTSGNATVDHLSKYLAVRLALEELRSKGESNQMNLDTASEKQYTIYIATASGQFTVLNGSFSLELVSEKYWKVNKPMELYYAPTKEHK
Sequence of Protein cereblon/Polycomb protein SUZ12 (Homo sapiens) (Q15022 whole entry, looked up): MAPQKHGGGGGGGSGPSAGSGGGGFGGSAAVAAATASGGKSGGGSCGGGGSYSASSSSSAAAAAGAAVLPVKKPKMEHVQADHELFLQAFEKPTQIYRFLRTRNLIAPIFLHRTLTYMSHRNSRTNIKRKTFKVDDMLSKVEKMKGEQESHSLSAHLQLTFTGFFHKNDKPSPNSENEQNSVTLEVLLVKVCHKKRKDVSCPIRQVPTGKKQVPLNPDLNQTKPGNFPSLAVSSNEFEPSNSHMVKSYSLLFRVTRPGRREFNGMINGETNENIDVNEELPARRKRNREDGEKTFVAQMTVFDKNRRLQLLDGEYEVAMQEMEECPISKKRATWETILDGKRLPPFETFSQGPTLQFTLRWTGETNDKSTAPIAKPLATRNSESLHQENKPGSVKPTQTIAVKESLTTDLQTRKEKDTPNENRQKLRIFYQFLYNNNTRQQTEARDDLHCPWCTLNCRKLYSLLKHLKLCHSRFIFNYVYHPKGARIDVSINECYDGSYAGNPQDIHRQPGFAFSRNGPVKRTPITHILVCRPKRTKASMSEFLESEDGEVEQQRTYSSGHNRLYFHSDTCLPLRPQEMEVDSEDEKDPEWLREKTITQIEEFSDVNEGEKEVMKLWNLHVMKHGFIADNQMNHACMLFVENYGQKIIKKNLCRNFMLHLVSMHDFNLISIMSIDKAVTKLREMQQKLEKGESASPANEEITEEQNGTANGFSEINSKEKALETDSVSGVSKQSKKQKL
Sequence of Protein cereblon/Polycomb protein SUZ12 (Homo sapiens) (Q96SW2 whole entry, looked up): as the sequence (Q96SW2 whole entry) above

## O=C(CNc1cccc2c1C(=O)N(C1CCC(=O)NC1=O)C2=O)NCCCCN1CCN(c2ccc(-c3cnc(NCc4ccco4)n4cnnc34)cc2)CC1 (centres undefined)
[1]
  Activity: Active
[2]
  GI50: 3.7 µM
[3]
  Activity: inactive
[4]
  Activity: inactive
[5]
  Activity: inactive
[6]
  Activity: Active
[7]
  Activity: Active
[8]
  Activity: inactive
[9]
  Activity: inactive
[10]
  Activity: inactive
[11]
  Activity: inactive
[12]
  Activity: inactive
[13]
  Activity: Active
[14]
  Activity: inactive
[15]
  Activity: inactive
[16]
  concentration at 8 h: > 500 nM
[17]
  Activity: Active
[18]
  fold change (FC): 3.1
[19]
  inhibition: Active
[20]
  Activity: inactive
[21]
  Activity: inactive
[22]
  Activity: 100%
[23]
  Activity: inactive
[24]
  Activity: Active
[25]
  Activity: inactive
[26]
  inhibition: Active
[27]
  Activity: Non-Toxic
[28]
  Activity: Active
[29]
  DC50: 3.3 µM
